How the values were obtained:
[1] = target: T1, human odorant receptor OR1D2 (Homo sapiens, UniProt P34982); test: calcium flux assay in cell line expressing human odorant receptor OR1D2; type: cell-based; settings: final concentration 0.3 mM
T1 construct: expressed in transfected cells; host or cells: 293T (HEK293T)
T1 sequence (P34982 1-312): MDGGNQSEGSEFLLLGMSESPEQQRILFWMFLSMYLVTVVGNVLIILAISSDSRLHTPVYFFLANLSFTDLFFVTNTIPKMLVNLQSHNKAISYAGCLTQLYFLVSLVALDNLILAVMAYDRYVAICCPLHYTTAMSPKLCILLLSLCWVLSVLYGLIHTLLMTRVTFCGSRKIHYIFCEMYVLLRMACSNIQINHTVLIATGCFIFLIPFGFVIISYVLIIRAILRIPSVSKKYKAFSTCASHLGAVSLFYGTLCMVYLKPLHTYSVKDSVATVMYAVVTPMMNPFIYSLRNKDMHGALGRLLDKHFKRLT
Procedure: (§1) FIG. 29B depicts representative traces of the functional cell-based response of a cell line described herein expressing human odorant receptor OR1D2 to Bourgeonal (to a final concentration of 0.3 mM) compared to DMSO vehicle background signal as control. Test (black) and control (gray) traces are overlaid. […] The cell-based assay was designed to report calcium flux using a fluorescent calcium signaling dye. Fluorescent assay response is plotted along the Y-axis and time is indicated along the X-axis. Arrows indicate the timepoint at which Bourgeonal or DMSO was added.

[2] = target: T1, human odorant receptor OR1D2; test: Calcium mobilization (Fluo-4) assay, HEK293T cells expressing OR1D2 and human Gα15; type: cell-based; settings: final concentration 0.3 mM, vs DMSO vehicle, FIG. 29B
Procedure: (§2) Populations of cells were tested using functional criteria. Calcium mobilization dye Fluo-4 (Invitrogen) was used according to manufacturer's instructions. HEK293T cell lines stably expressing h-OR were maintained under standard cell culture conditions in DMEM medium supplemented with 10% fetal bovine serum and glutamine. On the day before assay, the cells were harvested from stock plates and plated into black clear-bottom 384 well assay plates. The assay plates were maintained in a 37° C. cell culture incubator under 5% CO2 for 22-48 hours. […] The assay plates were then loaded on a fluorescent plate reader (Hamamatsu FDSS) and agonist (4.5 mM Helional for OR3A1 and 0.3 mM Bourgeonal for OR1D2-FIGS. 29A, 29B) dissolved in the above buffer (130 mM NaCl, 5 mM KCl, 2 mM CaCl2, 1.2 mM MgCl2, 10 mM HEPES, 10 mM glucose, pH 7.0) was added. Cells were tested at multiple different densities in 384-well plates and responses were analyzed. […]
(§3) In order to identify and measure the ligand-induced responsiveness of odorant receptor-expressing HEK293T cells, receptor activation are monitored by measuring receptor-triggered alterations in intracellular calcium levels. […] Software (Hamamatsu FDSS) analysis of images reports the change in relative fluorescence for each well in the cell plate.

[3] = target: T2, sweet taste receptor (T1R2/T1R3) (Homo sapiens, UniProt Q7RTX0+Q8TE23, C757R/I191V/I486V/R317G); test: Sweet cell-based calcium flux assay, HEK293T cells expressing T1R2, T1R3 and mouse Gα15; settings: FIG. 20; high density, coated plates, low glucose media, serum deprivation
T2 construct: expressed in transfected cells; host or cells: HEK293T (ATCC CRL-11268)
T2 sequence (Q8TE23 20-839 I191V/R317G/I486V): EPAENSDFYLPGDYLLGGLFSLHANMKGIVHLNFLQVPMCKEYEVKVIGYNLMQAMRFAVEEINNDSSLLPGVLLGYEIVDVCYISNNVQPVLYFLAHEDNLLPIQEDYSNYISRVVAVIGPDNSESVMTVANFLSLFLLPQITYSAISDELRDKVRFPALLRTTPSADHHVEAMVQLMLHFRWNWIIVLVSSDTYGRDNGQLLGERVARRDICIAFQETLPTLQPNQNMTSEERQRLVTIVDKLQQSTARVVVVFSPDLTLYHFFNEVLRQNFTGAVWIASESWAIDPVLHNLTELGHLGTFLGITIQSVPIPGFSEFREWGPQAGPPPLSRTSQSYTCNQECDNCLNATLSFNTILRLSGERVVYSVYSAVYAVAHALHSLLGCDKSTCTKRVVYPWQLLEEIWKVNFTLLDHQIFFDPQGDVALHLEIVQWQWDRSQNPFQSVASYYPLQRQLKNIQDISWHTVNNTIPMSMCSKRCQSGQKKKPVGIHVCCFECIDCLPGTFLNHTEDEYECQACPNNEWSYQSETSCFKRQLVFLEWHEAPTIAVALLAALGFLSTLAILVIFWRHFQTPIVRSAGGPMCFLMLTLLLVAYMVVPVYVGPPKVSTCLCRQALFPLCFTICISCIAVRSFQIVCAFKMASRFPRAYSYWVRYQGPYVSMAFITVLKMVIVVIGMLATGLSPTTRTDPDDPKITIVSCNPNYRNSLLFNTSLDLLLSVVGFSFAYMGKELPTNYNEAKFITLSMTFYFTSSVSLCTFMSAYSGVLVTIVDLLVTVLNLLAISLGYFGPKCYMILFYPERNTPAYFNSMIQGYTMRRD
T2 sequence (Q7RTX0 21-852 C757R): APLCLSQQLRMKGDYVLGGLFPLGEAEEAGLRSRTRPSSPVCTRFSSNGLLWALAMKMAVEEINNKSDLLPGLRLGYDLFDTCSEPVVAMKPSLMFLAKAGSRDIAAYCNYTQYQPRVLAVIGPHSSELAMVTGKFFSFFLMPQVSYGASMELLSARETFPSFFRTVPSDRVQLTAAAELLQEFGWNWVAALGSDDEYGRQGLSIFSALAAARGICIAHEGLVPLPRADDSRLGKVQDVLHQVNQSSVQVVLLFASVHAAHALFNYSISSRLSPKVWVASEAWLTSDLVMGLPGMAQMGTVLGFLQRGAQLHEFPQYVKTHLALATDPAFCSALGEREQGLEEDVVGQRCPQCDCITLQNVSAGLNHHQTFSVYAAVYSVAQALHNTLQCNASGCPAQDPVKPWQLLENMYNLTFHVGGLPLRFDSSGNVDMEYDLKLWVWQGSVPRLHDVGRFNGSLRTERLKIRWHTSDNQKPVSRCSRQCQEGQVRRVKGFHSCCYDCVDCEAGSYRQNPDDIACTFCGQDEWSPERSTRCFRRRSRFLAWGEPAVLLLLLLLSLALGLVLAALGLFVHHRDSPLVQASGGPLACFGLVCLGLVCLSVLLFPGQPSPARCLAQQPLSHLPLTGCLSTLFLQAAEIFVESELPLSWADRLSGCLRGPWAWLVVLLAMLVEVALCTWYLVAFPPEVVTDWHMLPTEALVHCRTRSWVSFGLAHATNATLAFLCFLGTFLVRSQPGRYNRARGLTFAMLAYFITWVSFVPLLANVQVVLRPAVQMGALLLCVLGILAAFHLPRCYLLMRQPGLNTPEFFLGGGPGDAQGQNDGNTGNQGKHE
Text: Plates are then loaded on a high throughput plate reader (Hamamatsu FDSS). […] Calcium flux is detected for 90 seconds.

[4] = target: T3, umami taste receptor (T1R1 and T1R3 subunits, Gα15) (Homo sapiens, UniProt Q7RTX0+Q7RTX1, C757R); test: umami taste receptor-expressing cell-based assay; settings: FIGS. 9-12
T3 construct: expressed in transfected cells; host or cells: HEK293T (ATCC CRL-11268)
T3 sequence (Q7RTX1 21-841): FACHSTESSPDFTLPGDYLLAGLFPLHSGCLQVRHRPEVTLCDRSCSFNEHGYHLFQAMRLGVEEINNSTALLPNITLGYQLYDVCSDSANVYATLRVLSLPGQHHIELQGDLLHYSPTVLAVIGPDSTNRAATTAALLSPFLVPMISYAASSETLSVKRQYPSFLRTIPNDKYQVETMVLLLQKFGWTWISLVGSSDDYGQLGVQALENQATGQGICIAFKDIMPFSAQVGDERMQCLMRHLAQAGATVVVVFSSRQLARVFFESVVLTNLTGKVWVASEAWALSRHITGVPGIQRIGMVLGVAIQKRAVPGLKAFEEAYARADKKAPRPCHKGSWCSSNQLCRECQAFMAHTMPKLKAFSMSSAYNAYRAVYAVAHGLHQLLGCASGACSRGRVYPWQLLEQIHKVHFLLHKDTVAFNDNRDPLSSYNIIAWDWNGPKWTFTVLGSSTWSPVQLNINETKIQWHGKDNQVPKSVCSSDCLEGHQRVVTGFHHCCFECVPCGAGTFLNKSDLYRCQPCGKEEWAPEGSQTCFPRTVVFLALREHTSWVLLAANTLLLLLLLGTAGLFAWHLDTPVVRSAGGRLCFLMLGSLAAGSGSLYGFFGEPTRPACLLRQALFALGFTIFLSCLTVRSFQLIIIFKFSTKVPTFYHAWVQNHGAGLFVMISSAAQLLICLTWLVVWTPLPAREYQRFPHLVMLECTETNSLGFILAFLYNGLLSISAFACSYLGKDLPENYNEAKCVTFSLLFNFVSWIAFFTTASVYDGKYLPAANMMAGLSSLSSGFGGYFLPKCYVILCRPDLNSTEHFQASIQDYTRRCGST
T3 sequence (Q7RTX0 21-852 C757R): T2 sequence (Q7RTX0 21-852 C757R)
Text: To identify a taste receptor modulator (e.g., umami taste receptor modulator or sweet taste receptor modulator), one exposes a cell or cell line of the invention to a test compound under conditions in which the taste receptor (e.g., umami taste receptor or sweet taste receptor) would be expected to be functional and then detects a statistically significant change (e.g., p<0.05) in taste receptor activity (e.g., umami taste receptor activity or sweet taste receptor activity) compared to a suitable control, e.g., cells that are not exposed to the test compound. Positive and/or negative controls using known agonists or antagonists and/or cells expressing different combinations of taste receptor subunits (e.g., umami taste receptor subunits or sweet taste receptor subunits) (and optionally a G protein) may also be used. In some embodiments, the taste receptor activity (e.g., umami taste receptor activity or sweet taste receptor activity) to be detected and/or measured is calcium release from the endoplasmic reticulum as a result of the down stream signaling events following taste receptor activation (e.g., umami taste receptor activation or sweet taste receptor activation). One of ordinary skill in the art would understand that various assay parameters may be optimized, e.g., signal to noise ratio.

[5] = target: T4, human odorant receptor OR3A1 (Homo sapiens, UniProt P47881, R125Q); test: Calcium mobilization (Fluo-4) assay, HEK293T cells expressing OR3A1 and human Gα15; type: cell-based; settings: final concentration 4.5 mM, vs DMSO vehicle, FIG. 29A
T4 construct: expressed in transfected cells; host or cells: 293T (HEK293T)
T4 sequence (P47881 1-315 R125Q): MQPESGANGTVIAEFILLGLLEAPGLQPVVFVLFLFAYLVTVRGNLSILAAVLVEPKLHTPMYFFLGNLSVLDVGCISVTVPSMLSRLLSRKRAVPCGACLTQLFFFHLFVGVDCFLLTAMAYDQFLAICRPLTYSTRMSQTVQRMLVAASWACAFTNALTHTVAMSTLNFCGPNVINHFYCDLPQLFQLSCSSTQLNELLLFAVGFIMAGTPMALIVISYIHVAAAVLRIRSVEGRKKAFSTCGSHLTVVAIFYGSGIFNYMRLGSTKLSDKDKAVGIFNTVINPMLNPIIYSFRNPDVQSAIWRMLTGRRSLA
Procedure: as §2, §3

[6] = target: T4, human odorant receptor OR3A1; test: calcium flux assay in cell line expressing human odorant receptor OR3A1; type: cell-based; settings: final concentration 4.5 mM
Procedure: as §1, with “29 (A-B) depicts representative traces of the functional cell-based response of cells expressing a human odorant receptor to Helional and to Bourgeonal compared to background. FIG. 29A” for “29B”, “OR3A1” for “OR1D2”, “Helional” for “Bourgeonal”, “4.5” for “0.3”

## CC(C)(C)c1ccc(CCC=O)cc1 [Bourgeonal]
[1]
  functional cell-based (calcium flux) response compared to DMSO vehicle background: response to Bourgeonal over background
[2]
  functional cell-based calcium flux response: response to Bourgeonal over background

## N[C@@H](CCC(=O)O)C(=O)[O-].[Na+] [MSG, monosodium glutamate]
[3]
  response of cells grown in the "Final" growth conditions: not
[4]
  response of umami taste receptor cells and cell lines to known classes of umami compounds: respond

## CC(C=O)Cc1ccc2c(c1)OCO2 (stereo not drawn) [Helional]
[5]
  functional cell-based calcium flux response: response to Helional over background
[6]
  functional cell-based (calcium flux) response compared to DMSO vehicle background: response to Helional over background

— patent US20170052170A1, “NOVEL CELL LINES AND METHODS” (priority 2009, published 2017)
